Literature values as cited in patent US20260001860A1, “METHODS AND COMPOSITIONS OF INHIBITING DCN1-UBC12 INTERACTION” (University of Kentucky Research Foundation, priority 2022, published 2026).

Settings: patient population taking either proteasome inhibitor

Structure (SMILES)	patient population exhibiting grade 3 hematologic adverse events (thrombocytopenia and neutropenia) [%]	patients suffering grade 4 adverse events (potentially life-threatening) [%]
CC(C)C[C@H](NC(=O)[C@H](Cc1ccccc1)NC(=O)c1cnccn1)B(O)O [bortezomib]	50	~15
CC(C)C[C@H](NC(=O)[C@H](CCc1ccccc1)NC(=O)CN1CCOCC1)C(=O)N[C@@H](Cc1ccccc1)C(=O)N[C@@H](CC(C)C)C(=O)[C@@]1(C)CO1 [carfilzomib]	50	~15
